# Results from patent publication US20160025753A1, “ASSAY FOR CANNABINOIDS AND METHODS OF USE THEREOF” (priority 2014, published 2016).
# Several values for one entry are separate records, joined by “and”; a condition that tells them apart may be missing. Identical values can stand only once. Like-named read-outs stand apart in the source and are kept apart here.
# Key:
# [1] = target: T1, human cannabinoid receptor 1 membrane preparation (Homo sapiens, UniProt P21554); format: binding
# T1 construct: purchased EMD Millipore
# [2] = target: T2, CB1 human recombinant protein (Homo sapiens, UniProt P21554); experiment: Heterogeneous competitive plate assay, Δ9-THC conjugate coated 96-well plate, anti-CB1 antibody/HRP detection (Example 3)
# [3] = target: T2, CB1 human recombinant protein; format: binding; parameters: purchased Abnova
# CB2 receptors = CB2 receptors (Homo sapiens, UniProt P34972); details: background statement; cited from earlier work
# Chain of CB2 receptors (P34972 whole entry): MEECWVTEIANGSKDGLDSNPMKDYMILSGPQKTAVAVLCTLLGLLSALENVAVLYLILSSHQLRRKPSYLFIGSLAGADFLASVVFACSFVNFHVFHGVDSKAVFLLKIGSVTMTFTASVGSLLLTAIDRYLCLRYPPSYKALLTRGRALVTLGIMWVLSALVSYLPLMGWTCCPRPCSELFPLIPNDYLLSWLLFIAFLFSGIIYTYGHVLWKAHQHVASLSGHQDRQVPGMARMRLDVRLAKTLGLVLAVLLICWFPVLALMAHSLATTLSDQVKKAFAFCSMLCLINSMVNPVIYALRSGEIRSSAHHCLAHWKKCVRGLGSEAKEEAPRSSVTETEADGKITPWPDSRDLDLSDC
# T1 sequence (P21554 whole entry): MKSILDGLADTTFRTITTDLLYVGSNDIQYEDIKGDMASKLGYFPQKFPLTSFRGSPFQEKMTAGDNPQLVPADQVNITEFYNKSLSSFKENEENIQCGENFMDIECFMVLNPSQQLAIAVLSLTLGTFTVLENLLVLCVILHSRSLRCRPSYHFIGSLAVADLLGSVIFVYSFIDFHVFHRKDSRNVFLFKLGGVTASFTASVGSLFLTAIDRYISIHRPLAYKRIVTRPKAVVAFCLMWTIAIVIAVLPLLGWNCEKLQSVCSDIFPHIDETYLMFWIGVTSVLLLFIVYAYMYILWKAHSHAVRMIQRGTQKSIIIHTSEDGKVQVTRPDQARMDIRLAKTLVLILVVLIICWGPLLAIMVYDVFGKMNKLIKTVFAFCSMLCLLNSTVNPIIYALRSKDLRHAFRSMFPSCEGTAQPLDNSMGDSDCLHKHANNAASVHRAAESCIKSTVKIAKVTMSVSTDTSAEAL
# T2 sequence (P21554 whole entry): as above
structure (smiles),measurement,setting,value
CCCCCCCC(C)(C)c1ccc([C@H]2CCC[C@@H](O)C2)c(O)c1 [Cannabicyclohexanol],Relative Fluorescent Units (RFU),"[1]; 1 μg/mL sample, excitation 535 nm, emission 610 nm, no cannabinoids 47,934","20,667 RFU"
same,Detection by the assay (in words),[1]; 1 μg/mL solution of each,comparable response
CCCCCCC(C)(C)c1cc(O)c2c(c1)OC(C)(C)[C@@H]1CC=C(CO)C[C@@H]21 [HU-210],Inhibition of absorbance at 450 nm (in words),[2]; sample containing 100 ng/ml,significant inhibition of absorbance
same,Average Absorbance @ 450 nm,"[2]; with 100 ng/mL HU-210, average of 6 replicates, no cannabinoid blank 2.279",1.480
same,Absorbance @ 450 nm,"[2]; with 100 ng/mL HU-210, single replicates, no cannabinoid blank average 2.279",1.435 and 1.480 and 1.416 and 1.602 and 1.379 and 1.569
same,Detection by the assay (in words),[1],comparable response
same,Relative Fluorescent Units (RFU),[1],"21,014 RFU"
CCCCCn1cc(C(=O)c2cccc3ccccc23)c2cc(O)ccc21 [JWH-018 5-hydroxyindole metabolite],Signal inhibition (relative absorbance at 450 nm),"[3]; 100 ng/mL test sample, FIG. 8",showed less signal inhibition
CCCCCn1cc(C(=O)c2cccc3ccccc23)c2ccccc21 [JWH-018],Signal inhibition (relative absorbance at 450 nm),[3],demonstrated signal inhibition
same,Detection by the assay (in words),[1],comparable response
same,Relative Fluorescent Units (RFU),[1],"22,299 RFU"
"C=C(C)[C@@H]1CCC(C)=C[C@H]1c1c(O)cc(CCCCC)cc1O [cannabidiol, Cannabidiol]",Affinity for CB2 receptors,CB2 receptors,low affinity
